Data taken from article PMC9749936, “Synthesis and structure–activity relationship studies of N-terminal analogues of the lipopeptide antibiotics brevicidine and laterocidine” (RSC Medicinal Chemistry, 2022).
Bridge positions count the residues as written; N and C are the ends. Square brackets hold non-standard residues; d marks the D form. Peptide text beside a SMILES is read from it. * marks the point of attachment. Octanoyl(7-Me) = CC(C)CCCCCC(=O)*; Palmitoyl = CCCCCCCCCCCCCCCC(=O)*; Lauroyl = CCCCCCCCCCCC(=O)*; dOrn = NCCC[C@@H](N)C(=O)O; Orn = NCCC[C@H](N)C(=O)O; Hexanoyl = CCCCCC(=O)*

Tests used:
[1] = test system: E. coli ATCC 25922; format: cell-based, Escherichia coli; conditions: ATCC 25922, 18 h
Outline: (§1)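 Broth microdilution MIC per CLSI guidelines in MHB, with compound from DMSO stocks serially diluted in polypropylene plates.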

[2] = test system: E. coli ATCC 25922 MCR-1; format: cell-based, Escherichia coli; conditions: colistin-resistant strain carrying mcr-1; CLSI broth microdilution in MHB, 18 h at 37 °C, visual inspection; three technical replicates
[3] = test system: K. pneumoniae ATCC 13883; format: cell-based, Klebsiella pneumoniae; conditions: ATCC 13883, 18 h
Outline: as §1

[4] = test system: A. baumannii ATCC 17961; format: cell-based, Acinetobacter baumannii; conditions: ATCC 17961, 18 h
Outline: as §1

[5] = test system: P. aeruginosa PAO1; format: cell-based, Pseudomonas aeruginosa; conditions: PAO1, 18 h
Outline: as §1

[6] = test system: S. aureus USA300; format: cell-based, Staphylococcus aureus; conditions: USA300, 18 h
Outline: as §1

[7] = test system: Sheep red blood cells; format: cell-based; conditions: red cells of sheep, 1 h, 64 μg mL^−1

| SMILES | Antimicrobial activity (MIC) E. coli ATCC 25922 [1] | Antimicrobial activity (MIC) E. coli ATCC 25922 MCR-1 [2] | Antimicrobial activity (MIC) K. pneumoniae ATCC 13883 [3] | Antimicrobial activity (MIC) A. baumannii ATCC 17961 [4] | Antimicrobial activity (MIC) P. aeruginosa PAO1 [5] | Antimicrobial activity (MIC) S. aureus USA300 [6] | % Hemolytic activity, sheep red blood cells [7] |
| --- | --- | --- | --- | --- | --- | --- | --- |
| CCCCCC(=O)N[C@H](CC(N)=O)C(=O)N[C@H](Cc1ccc(O)cc1)C(=O)N[C@H](Cc1c[nH]c2ccccc12)C(=O)N[C@H](CCCN)C(=O)N[C@@H](CCCN)C(=O)NCC(=O)N[C@H](CCCN)C(=O)N[C@@H](Cc1c[nH]c2ccccc12)C(=O)N[C@@H]1C(=O)N[C@@H]([C@@H](C)CC)C(=O)NCC(=O)N[C@@H](CO)C(=O)O[C@@H]1C [Compound 12] (Hexanoyl-[dN][dY][dW][dOrn][Orn]G[dOrn]WTIGS; ester 9-C) | 8 µg/mL | 8 µg/mL | 4 µg/mL | 16 µg/mL | >32 µg/mL | >32 µg/mL | 0.3% |
| CCCCCCCCCCCC(=O)N[C@H](CC(N)=O)C(=O)N[C@H](Cc1ccc(O)cc1)C(=O)N[C@H](Cc1c[nH]c2ccccc12)C(=O)N[C@H](CCCN)C(=O)N[C@@H](CCCN)C(=O)NCC(=O)N[C@H](CCCN)C(=O)N[C@@H](Cc1c[nH]c2ccccc12)C(=O)N[C@@H]1C(=O)N[C@@H]([C@@H](C)CC)C(=O)NCC(=O)N[C@@H](CO)C(=O)O[C@@H]1C [Compound 15] (Lauroyl-[dN][dY][dW][dOrn][Orn]G[dOrn]WTIGS; ester 9-C) | 8 µg/mL | 8 µg/mL | 8 µg/mL | 4 µg/mL | 16 µg/mL | 32 µg/mL | 13.3% |
| CCCCCCCCCCCCCCCC(=O)N[C@H](CO)C(=O)N[C@H](Cc1ccc(O)cc1)C(=O)N[C@H](Cc1c[nH]c2ccccc12)C(=O)N[C@H](CCCN)C(=O)N[C@@H](CCCN)C(=O)NCC(=O)N[C@H](CCCN)C(=O)N[C@@H](Cc1c[nH]c2ccccc12)C(=O)N[C@@H]1C(=O)N[C@@H]([C@@H](C)CC)C(=O)N[C@@H](CC(N)=O)C(=O)NCC(=O)NCC(=O)O[C@@H]1C [Compound 26] (Palmitoyl-[dS][dY][dW][dOrn][Orn]G[dOrn]WTINGG; ester 9-C) | 32 µg/mL | 32 µg/mL | >32 µg/mL | 4 µg/mL | 32 µg/mL | 32 µg/mL | 46.1% |
| CC[C@H](C)[C@@H]1NC(=O)[C@@H](NC(=O)[C@H](Cc2c[nH]c3ccccc23)NC(=O)[C@@H](CCCN)NC(=O)CNC(=O)[C@H](CCCN)NC(=O)[C@@H](CCCN)NC(=O)[C@@H](Cc2c[nH]c3ccccc23)NC(=O)[C@@H](Cc2ccc(O)cc2)NC(=O)[C@@H](CO)NC(C)=O)[C@@H](C)OC(=O)CNC(=O)CNC(=O)[C@H](CC(N)=O)NC1=O [Compound 19] (Ac-[dS][dY][dW][dOrn][Orn]G[dOrn]WTINGG; ester 9-C) | >32 µg/mL | >32 µg/mL | >32 µg/mL | >32 µg/mL | 16 µg/mL | >32 µg/mL | 0.2% |
| CC[C@H](C)[C@@H]1NC(=O)[C@@H](NC(=O)[C@H](Cc2c[nH]c3ccccc23)NC(=O)[C@@H](CCCN)NC(=O)CNC(=O)[C@H](CCCN)NC(=O)[C@@H](CCCN)NC(=O)[C@@H](Cc2c[nH]c3ccccc23)NC(=O)[C@@H](Cc2ccc(O)cc2)NC(=O)[C@H](N)CC(N)=O)[C@@H](C)OC(=O)[C@H](CO)NC(=O)CNC1=O [Compound 9] | >32 µg/mL | >32 µg/mL | >32 µg/mL | >32 µg/mL | 16 µg/mL | >32 µg/mL | 0.2% |
| CC[C@H](C)[C@@H]1NC(=O)[C@@H](NC(=O)[C@H](Cc2c[nH]c3ccccc23)NC(=O)[C@@H](CCCN)NC(=O)CNC(=O)[C@H](CCCN)NC(=O)[C@@H](CCCN)NC(=O)[C@@H](Cc2c[nH]c3ccccc23)NC(=O)[C@@H](Cc2ccc(O)cc2)NC(=O)[C@@H](CO)NC(=O)CCCCCC(C)C)[C@@H](C)OC(=O)CNC(=O)CNC(=O)[C@H](CC(N)=O)NC1=O [Compound 2, laterocidine] ({Octanoyl(7-Me)}-[dS][dY][dW][dOrn][Orn]G[dOrn]WTINGG; ester 9-C; N-terminus assumed) | 2 µg/mL | 2 µg/mL | 2 to 4 µg/mL | 2 µg/mL | 4 µg/mL | >32 µg/mL | 0.4% |
| CCCCCC(=O)N[C@H](CO)C(=O)N[C@H](Cc1ccc(O)cc1)C(=O)N[C@H](Cc1c[nH]c2ccccc12)C(=O)N[C@H](CCCN)C(=O)N[C@@H](CCCN)C(=O)NCC(=O)N[C@H](CCCN)C(=O)N[C@@H](Cc1c[nH]c2ccccc12)C(=O)N[C@@H]1C(=O)N[C@@H]([C@@H](C)CC)C(=O)N[C@@H](CC(N)=O)C(=O)NCC(=O)NCC(=O)O[C@@H]1C [Compound 21] (Hexanoyl-[dS][dY][dW][dOrn][Orn]G[dOrn]WTINGG; ester 9-C) | 4 µg/mL | 8 µg/mL | 8 µg/mL | 16 µg/mL | 4 µg/mL | >32 µg/mL | 0.2% |
